Reference: patent US12448388B2, “PRMT5 inhibitors and uses thereof” (Gilead Sciences, Inc., priority 2023, dated 2025)

system: HCT116 MTAP-deleted cell lines; assay: Cell viability assay (CellTiter-Glo, 7 days), HCT116 MTAP-deleted; assay type: cell-based; conditions: Homo sapiens, HCT-116; cell viability assay, HCT116 MTAP-deleted; class symbols; read-out: CC50
Summary of the method: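 CC50 values come from 7-day CellTiter-Glo viability measurements on cells exposed to a dose range of PRMT5 inhibitors dispensed from DMSO stocks.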

Question: `Nc1nc2cc(F)c(C(=O)N3CCO[C@@H]4Cc5cc(Cl)ccc5[C@@H]43)cc2n2cncc12` [Ff-461, (4-amino-7-fluoroimidazo[1,5-a]quinoxalin-8-yl)((4aS,9aR)-7-chloro-2,3,9,9a-tetrahydroindeno[2,1-b][1,4]oxazin-4(4aH)-yl)methanone] was tested. Which CC50 did it give?
Answer: < 100 nM

Question: Which CC50 does the source give for `CN(C(=O)c1cc2c(cc1F)nc(N)c1cncn12)[C@@H]1COc2cc(C3CC(C#N)C3)ccc21` (stereo partly drawn) [Ff-465, (S)-4-amino-N-(6-(3-cyanocyclobutyl)-2,3-dihydrobenzofuran-3-yl)-7-fluoro-N-methylimidazo[1,5-a]quinoxaline-8-carboxamide] here?
Answer: < 100 nM

Question: With `Cc1ncc2c(N)nc3cnc(C(=O)N(C)[C@@H]4COc5cc(C67CC(C6)C7)ccc54)cc3n12` [Ff-466, (S)-4-amino-N-(6-(bicyclo[1.1.1]pentan-1-yl)-2,3-dihydrobenzofuran-3-yl)-N,1-dimethylimidazo[1,5-a]pyrido[3,4-e]pyrazine-8-carboxamide] as the compound, how does the CC50 read?
Answer: < 100 nM

Question: Which CC50 does the source give for `CC1(N(Cc2ccc(C(F)(F)F)cn2)C(=O)c2cc3c(cc2F)nc(N)c2cncn23)CC1` [Ff-468, 4-amino-7-fluoro-N-(1-methylcyclopropyl)-N-((5-(trifluoromethyl)pyridin-2-yl)methyl)imidazo[1,5-a]quinoxaline-8-carboxamide] here?
Answer: < 100 nM

Question: `CN(C(=O)c1cc2c(cc1F)nc(N)c1cncn12)[C@@H]1COc2cc(-c3cnn(-c4ccccc4)c3)ccc21` [Ff-472, (S)-4-amino-7-fluoro-N-methyl-N-(6-(1-phenyl-1H-pyrazol-4-yl)-2,3-dihydrobenzofuran-3-yl)imidazo[1,5-a]quinoxaline-8-carboxamide] was tested. Which CC50 did it give?
Answer: < 100 nM

Question: With `CN(C(=O)c1cc2c(cc1F)nc(N)c1cncn12)[C@@H]1COc2cc(C3CC3(C)C)ccc21` (stereo partly drawn) [Ff-475, 4-amino-N-((3S)-6-(2,2-dimethylcyclopropyl)-2,3-dihydrobenzofuran-3-yl)-7-fluoro-N-methylimidazo[1,5-a]quinoxaline-8-carboxamide] as the compound, how does the CC50 read?
Answer: < 100 nM

Question: How did the CC50 turn out when `CN(C(=O)c1cc2c(cc1F)nc(N)c1cncn12)[C@@H]1COc2cc(C3CC34CCC4)ccc21` (stereo partly drawn) [Ff-476, 4-amino-7-fluoro-N-methyl-N-((3S)-6-(spiro[2.3]hexan-1-yl)-2,3-dihydrobenzofuran-3-yl)imidazo[1,5-a]quinoxaline-8-carboxamide] was run?
Answer: 100 to 1000 nM

Question: How did the CC50 turn out when `CN(C(=O)c1cc2c(cc1F)nc(N)c1cncn12)[C@@H]1COc2cc([C@@H]3C[C@H]3c3ccn(C(F)F)n3)ccc21` [Ff-477, 4-amino-N—((S)-6-((1R,2R)-2-(1-(difluoromethyl)-1H-pyrazol-3-yl)cyclopropyl)-2,3-dihydrobenzofuran-3-yl)-7-fluoro-N-methylimidazo[1,5-a]quinoxaline-8-carboxamide] was run?
Answer: < 100 nM

Question: Which CC50 does the source give for `C=C(C)c1ccc2c(c1)OC[C@H]2N(C)C(=O)c1cc2c(cc1F)nc(N)c1cncn12` [Ff-478, (S)-4-amino-7-fluoro-N-methyl-N-(6-(prop-1-en-2-yl)-2,3-dihydrobenzofuran-3-yl)imidazo[1,5-a]quinoxaline-8-carboxamide] here?
Answer: < 100 nM

Question: For `CC(C)c1ccc2c(c1)OC[C@H]2N(C)C(=O)c1cc2c(cc1F)nc(N)c1cncn12` [Ff-479, (S)-4-amino-7-fluoro-N-(6-isopropyl-2,3-dihydrobenzofuran-3-yl)-N-methylimidazo[1,5-a]quinoxaline-8-carboxamide], which CC50 is on record?
Answer: < 100 nM

Question: Which CC50 does the source give for `CN(C(=O)c1cc2c(cc1F)nc(N)c1cncn12)[C@@H]1COc2cc(C3=CCOC3)ccc21` [Ff-483, (S)-4-amino-N-(6-(2,5-dihydrofuran-3-yl)-2,3-dihydrobenzofuran-3-yl)-7-fluoro-N-methylimidazo[1,5-a]quinoxaline-8-carboxamide] here?
Answer: < 100 nM

Question: With `CN(C(=O)c1cc2c(cc1F)nc(N)c1cncn12)[C@@H]1COc2cc(C3=CCOC3(C)C)ccc21` [Ff-485, (S)-4-amino-N-(6-(2,2-dimethyl-2,5-dihydrofuran-3-yl)-2,3-dihydrobenzofuran-3-yl)-7-fluoro-N-methylimidazo[1,5-a]quinoxaline-8-carboxamide] as the compound, how does the CC50 read?
Answer: < 100 nM

Question: For `CN(C(=O)c1cc2c(cc1F)nc(N)c1cncn12)[C@@H]1COc2cc(C3CCOC3(C)C)ccc21` (stereo partly drawn) [Ff-486, 4-amino-N-((3S)-6-(2,2-dimethyltetrahydrofuran-3-yl)-2,3-dihydrobenzofuran-3-yl)-7-fluoro-N-methylimidazo[1,5-a]quinoxaline-8-carboxamide], which CC50 is on record?
Answer: < 100 nM

Question: With `Nc1nc2cc(Cl)c(C(=O)N3CC[C@@H]4C[C@H]3c3ccc(Cl)cc34)cc2n2cncc12` [Ff-487, (4-amino-7-chloroimidazo[1,5-a]quinoxalin-8-yl)((1S,5R)-7-chloro-1,3,4,5-tetrahydro-2H-1,5-methanobenzo[c]azepin-2-yl)methanone] as the compound, how does the CC50 read?
Answer: 100 to 1000 nM

Question: How did the CC50 turn out when `Nc1nc2cc(Cl)c(C(=O)N3CC[C@H]4C[C@@H]3c3c(F)cc(Cl)cc34)cc2n2cncc12` [Ff-488, (4-amino-7-chloroimidazo[1,5-a]quinoxalin-8-yl)((1R,5S)-7-chloro-9-fluoro-1,3,4,5-tetrahydro-2H-1,5-methanobenzo[c]azepin-2-yl)methanone] was run?
Answer: 100 to 1000 nM

Question: Which CC50 does the source give for `Nc1nc2cc(Cl)c(C(=O)N3CC[C@H]4C[C@@H]3c3ccc(Cl)c(F)c34)cc2n2cncc12` [Ff-489, (4-amino-7-chloroimidazo[1,5-a]quinoxalin-8-yl)((1R,5S)-7-chloro-6-fluoro-1,3,4,5-tetrahydro-2H-1,5-methanobenzo[c]azepin-2-yl)methanone] here?
Answer: 100 to 1000 nM

Question: With `CN(C(=O)c1cc2c(cc1C#N)nc(N)c1cncn12)[C@@H]1COc2cc(C(F)(F)F)ccc21` [Ff-490, (S)-4-amino-7-cyano-N-methyl-N-(6-(trifluoromethyl)-2,3-dihydrobenzofuran-3-yl)imidazo[1,5-a]quinoxaline-8-carboxamide] as the compound, how does the CC50 read?
Answer: < 100 nM

Question: With `Cc1ncn2c1c(N)nc1cc(Cl)c(C(=O)N(C)[C@@H]3COc4cc(C(F)(F)F)ccc43)cc12` [Ff-492, (S)-4-amino-7-chloro-N,3-dimethyl-N-(6-(trifluoromethyl)-2,3-dihydrobenzofuran-3-yl)imidazo[1,5-a]quinoxaline-8-carboxamide] as the compound, how does the CC50 read?
Answer: < 100 nM

Question: With `[2H]C([2H])([2H])c1ncn2c1c(N)nc1cc(F)c(C(=O)N(C)[C@@H]3COc4cc(C(F)(F)F)ccc43)cc12` [Ff-497, (S)-4-amino-7-fluoro-N-methyl-3-(methyl-d3)-N-(6-(trifluoromethyl)-2,3-dihydrobenzofuran-3-yl)imidazo[1,5-a]quinoxaline-8-carboxamide] as the compound, how does the CC50 read?
Answer: < 100 nM

Question: With `Cc1ncn2c1c(N)nc1cnc(C(=O)N3C[C@H](C)O[C@@H]4Cc5cc(C(F)(F)F)ccc5[C@@H]43)cc12` [Ff-498, (4-amino-3-methylimidazo[1,5-a]pyrido[3,4-e]pyrazin-8-yl)((2S,4aS,9aR)-2-methyl-7-(trifluoromethyl)-2,3,9,9a-tetrahydroindeno[2,1-b][1,4]oxazin-4(4aH)-yl)methanone] as the compound, how does the CC50 read?
Answer: < 100 nM

Question: For `C[C@@H]1C[C@@H]2Oc3cc(OC(F)(F)F)ccc3[C@@H]2N(C(=O)c2cc3c(cc2F)nc(N)c2cncn23)C1` [Ff-500, (4-amino-7-fluoroimidazo[1,5-a]quinoxalin-8-yl)((3R,4aS,9bS)-3-methyl-7-(trifluoromethoxy)-3,4,4a,9b-tetrahydrobenzofuro[3,2-b]pyridin-1(2H)-yl)methanone], which CC50 is on record?
Answer: < 100 nM

Question: With `CN(C(=O)c1cc2c(cc1F)nc(N)c1cncn12)[C@@H]1COc2cc(C(F)(F)F)c(F)cc21` [Ff-503, (S)-4-amino-7-fluoro-N-(5-fluoro-6-(trifluoromethyl)-2,3-dihydrobenzofuran-3-yl)-N-methylimidazo[1,5-a]quinoxaline-8-carboxamide] as the compound, how does the CC50 read?
Answer: < 100 nM

Question: How did the CC50 turn out when `C#Cc1ccc2c(c1)OC[C@H]2N(C)C(=O)c1cc2c(cc1F)nc(N)c1cncn12` [Ff-506, (S)-4-amino-N-(6-ethynyl-2,3-dihydrobenzofuran-3-yl)-7-fluoro-N-methylimidazo[1,5-a]quinoxaline-8-carboxamide] was run?
Answer: < 100 nM

Question: For `C[C@@H]1C[C@@H]2Oc3cc(OC(F)(F)F)ccc3[C@@H]2N(C(=O)c2cc3c(cn2)nc(N)c2cncn23)C1` [Ff-507, (4-aminoimidazo[1,5-a]pyrido[3,4-e]pyrazin-8-yl)((3R,4aS,9bS)-3-methyl-7-(trifluoromethoxy)-3,4,4a,9b-tetrahydrobenzofuro[3,2-b]pyridin-1(2H)-yl)methanone], which CC50 is on record?
Answer: < 100 nM

Question: `CN(C(=O)c1cc2c(cc1Cl)nc(N)c1cncn12)[C@@H]1COc2cc(C(C)(F)F)ccc21` [Ff-508, (S)-4-amino-7-chloro-N-(6-(1,1-difluoroethyl)-2,3-dihydrobenzofuran-3-yl)-N-methylimidazo[1,5-a]quinoxaline-8-carboxamide] was tested. Which CC50 did it give?
Answer: < 100 nM

Question: How did the CC50 turn out when `Cc1ncc2c(N)nc3cnc(C(=O)N(C)[C@@H]4COc5cc(C(F)(F)F)ccc54)cc3n12` [Ff-509, (S)-4-amino-N,1-dimethyl-N-(6-(trifluoromethyl)-2,3-dihydrobenzofuran-3-yl)imidazo[1,5-a]pyrido[3,4-e]pyrazine-8-carboxamide] was run?
Answer: < 100 nM

Question: For `Nc1nc2ccc(C(=O)N3CC[C@H]4C[C@@H]3c3ccc(C(F)(F)F)cc3O4)cc2n2cncc12` [Ff-510, (4-aminoimidazo[1,5-a]quinoxalin-8-yl)((2S,6R)-9-(trifluoromethyl)-3,4-dihydro-2H-2,6-methanobenzo[b][1,5]oxazocin-5(6H)-yl)methanone], which CC50 is on record?
Answer: < 100 nM

Question: Which CC50 does the source give for `Nc1nc2cc(F)c(C(=O)N3CC4CCC(O4)C3c3ccc(C(F)(F)F)cn3)cc2n2cncc12` (centres unmarked) [Ff-511, (4-amino-7-fluoroimidazo[1,5-a]quinoxalin-8-yl)(2-(5-(trifluoromethyl)pyridin-2-yl)-8-oxa-3-azabicyclo[3.2.1]octan-3-yl)methanone] here?
Answer: 100 to 1000 nM

Question: With `Nc1nc2cc(F)c(C(=O)N3CC4CCC(C4)C3c3ccc(C(F)(F)F)cn3)cc2n2cncc12` (centres unmarked) [Ff-512, (4-amino-7-fluoroimidazo[1,5-a]quinoxalin-8-yl)(2-(5-(trifluoromethyl)pyridin-2-yl)-3-azabicyclo[3.2.1]octan-3-yl)methanone] as the compound, how does the CC50 read?
Answer: 100 to 1000 nM
